Read-outs that look alike come from different tables or passages of the source.
Columns and labels:
[1] = system: Colo205 cells; experiment: In vitro proliferation inhibition test of small molecule compound (CTG, 6 days), Example 3.2; type: cell-based; settings: Homo sapiens, COLO 205, 144 h, read-out: Abs-IC50
Protocol: (§1) To detect the inhibitory activity of the drug compound against the proliferation of NCI-N87 and Colo205 tumor cells in vitro. Cells were treated with different concentrations of the compound in vitro, after 6 days of culture, the proliferation of the cells was detected using CTG (CellTiter-Glo® Luminescent Cell Viability Assay, Promega, Cat. No.: G7558) reagent, and the in vitro activity of the compound was evaluated according to the IC50 values. • 1. Cell culture: NCI-N87/Colo205 cells were cultured with 10% FBS RPMI-1640 medium. • 2. Preparation of cells: the NCI-N87/Colo205 cells in the logarithmic growth phase were taken and washed once with PBS, and 2-3 ml of trypsin was then added for digestion for 2-3 min. After the cells were completely digested, 10-15 ml of cell culture medium was added to elute the digested cells, the cells were centrifuged at 1000 rpm for 5 min, the supernatant was discarded, and then 10-20 ml of cell culture medium was added to resuspend the cells to prepare a single cell suspension. • 3. Cell plating: the NCI-N87/Colo205 single cell suspensions were mixed uniformly, and respectively adjusted to a live cell density of 6×10^4 cells/ml with a cell culture medium, and the density-adjusted cell suspensions were mixed uniformly, and added to 96-well cell culture plates at 50 ul/well. The culture plates were cultured in an incubator for 18 hours (37° C., 5% CO2). • 4. Preparation of compound: the compound was dissolved in DMSO to formulate a stock solution with an initial concentration of 10 mM.
(§2) A total of 8 concentrations of the small molecule compound were involved: 300, 100, 30, 10, 3, 1, 0.3, and 0.1 nM, respectively. • 5. Sample loading operation: different concentrations of the formulated samples to be tested were added to culture plates, with two replicate wells for each sample. The culture plates were incubated in an incubator for 6 days (37° C., 5% CO2). • 6. Color development operation: the 96-well cell culture plates were taken out, 50 ul of CTG reagent was added to each well, and the plates were incubated for 10 minutes at room temperature. • 7. Plate reading operation: the 96-well cell culture plates were taken out, and placed in a microplate reader, and the chemiluminescence was determined using the microplate reader.
(§3) Data analysis: the data was processed and analyzed using Microsoft Excel and Graphpad Prism 5.

[2] = system: NCI-N87 cells; experiment: as above; type: cell-based; settings: Homo sapiens, read-out: Abs-IC50
Protocol: as §1, §2, §3

[3] = system: human breast cancer cells MX-1 with high expression of B7H4; experiment: In vitro proliferation inhibition (3D cell culture, CTG); type: cell-based; settings: 144 h, MX-1, 3D culture, 6 days
Protocol: (§4) The cells in the logarithmic growth phase were collected and a cell culture medium was added to resuspend the cells to prepare a single cell suspension. The single cell suspension was adjusted to a live cell density of […], and 3.5 mL of the cell suspension was mixed uniformly with 6.5 mL of 1% methylcellulose, avoiding bubbles as much as possible. 90 μL of the cell suspension was added to each well of 96-well plates, and the plates were cultured overnight in an incubator with 5% CO2 at 37° C. On the second day of the experiment, the test article was diluted with a complete medium to obtain a 10× solution, 10 μL of the test article solution (the highest final concentration of 100 nM, 9 concentrations, 3-fold dilution) was added to each well, the complete medium was used as a blank control, and 3 replicate wells were set up; and the plates were incubated in the incubator at 37° C. for another 6 days. After the incubation was completed, the cell culture plates were taken out and equilibrated to room temperature, and 100 μL of CTG detection reagent (Promega, Cat #: G7573) was added to each well. The plates were shaken and mixed uniformly, then left to stand in the dark for 10 minutes, and then placed at room temperature for 30 minutes to stabilize the luminescence signal. Luminescence was read using EnVision. Using GraphPad Prism software, a sigmoidal dose-response curve was plotted by using a non-linear regression model, and the IC50 value was calculated. Cell viability calculation

[4] = system: endometrial carcinoma cells RL95-2 with low expression of B7H4; experiment: as above; type: cell-based; settings: Homo sapiens, 144 h, RL95-2, 3D culture, 6 days
Protocol: as §4

[5] = system: breast cancer cells JIMT-1 negative for B7H4 expression; experiment: as above; type: cell-based; settings: Homo sapiens, 144 h, JIMT-1, 3D culture, 6 days
Protocol: as §4

[6] = biological target: T1, human B7H4 (human, UniProt Q7Z7D3 25-282); experiment: cell-based or functional assay
T1 sequence (looked up): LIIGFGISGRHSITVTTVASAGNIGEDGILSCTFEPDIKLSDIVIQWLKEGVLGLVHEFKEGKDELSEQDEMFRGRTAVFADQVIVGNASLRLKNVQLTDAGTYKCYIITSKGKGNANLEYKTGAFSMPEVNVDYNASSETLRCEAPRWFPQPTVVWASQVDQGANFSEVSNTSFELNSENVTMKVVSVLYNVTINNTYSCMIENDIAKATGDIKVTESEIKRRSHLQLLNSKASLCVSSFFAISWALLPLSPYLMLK

[7] = highest concentration 100 nM, read-out: Max inh.

Question: How did the IC50 [1] turn out when `CC[C@@]1(O)C(=O)OCc2c1cc1n(c2=O)Cc2c-1nc1cc(F)c(C)c3c1c2[C@@H](NC(=O)CCN)CC3` [Reference example 1, reference compound] was run?
Answer: > 1000 nM

Question: And the IC50 ([2]; NCI-N87, 144 h)?
Answer: > 300 nM

Question: How did the IC50 ([1]; Colo205, 6 days, CTG) turn out when `CC[C@@]1(O)C(=O)OCc2c1cc1n(c2=O)Cc2c-1nc1cc(F)c(C)c3c1c2[C@@H](NC(=O)C[C@H](C)O)CC3` [P-III-30] was run?
Answer: 103 nM

Question: What about the IC50 ([2]; 144 h, NCI-N87, 6 days, CTG) of the same molecule?
Answer: 6.5 nM

Question: What about the IC50 [3] of the same molecule?
Answer: 1.77 nM

Question: And the inhibition at up to 0.1 µM [3, 7]?
Answer: 84.5%

Question: And the IC50 [4]?
Answer: 0.843 nM

Question: And the inhibition at up to 0.1 µM [4, 7]?
Answer: 95.1%

Question: What about the IC50 [5] of the same molecule?
Answer: 24.3 nM

Question: And the inhibition at up to 0.1 µM [5, 7]?
Answer: 71%

B1: antibody-drug conjugate DB1001-X1 (antibody, DAR 3.89, V domains shown)
VH: QVQLVESGGGVVQPGRSLRLSCAASGFTFRSFGMHWVRQAPGKGLEWVAVISYDASNEYYADSVKGRFIISRDNSKDTLYLQMNSLRAGDTAVYYCAKGGALRWYFAYWGQGTLVTVSS
VL: EIVMTQSPATLSVSPGERATLSCRASQSISSNLGWYQQKPGQAPRLLIYGASTRATGIPARFSGSGSGTEFTLTISSLQSEDFAVYYCQQYRSWPPLTFGGGTKVEIKR
modifications: linker-cytotoxin X1 (payload P-II-3) coupled after TCEP reduction of the antibody; drug-to-antibody ratio (DAR) of 3.89; conjugation residues not stated
Question: B1 was tested. Which “IC50 (nM), in vitro proliferation inhibition of MDA-MB-468 cells (CTG, 7 days)” value [6] did it give?
Answer: 30.3 nM
